Assay results: patent publication EP0873131B1, “PROCESSES FOR PREPARATION OF RG3 AND RG5 GINSENOSIDES” (Cheil Je Dang Co., priority 1995, dated 1997)

Experiments:
aortic rings = test: Vasodilation of phenylephrine-contracted rat thoracic aortic rings (organ chamber, isometric tension); parameters: species or system Sprague-Dawley(SD) rats; settings: for effect to the blood vessel without endothelium / relaxation to the blood vessel with endothelium: aortic rings contracted by 10^-6M phenylephrine; for effect to the blood vessel without endothelium: endothelium removed mechanically; for relaxation to the blood vessel with endothelium: substance alone; for relaxation to the blood vessel with endothelium / vasodilation in the presence of methylene blue(MB) / vasodilation in the presence of nitro-L-arginine(NLA): with endothelium; for vasodilation in the presence of methylene blue(MB): together with 10^-6M methylene blue(MB), an inhibitor of soluble guanylate cyclase; for vasodilation in the presence of nitro-L-arginine(NLA): together with 10^-6M nitro-L-arginine(NLA), an inhibitor of nitric oxide synthase
Description: Sprague-Dawley(SD) rats weighing 300-400g were sacrificed and their thoracic aortae were removed quickly, and then placed in a Krebs-Ringer-sodium bicarbonate solution (control solution, NaCl 118.3; KCl 4.7; MgSO4 1.2; KH2PO4 1.2; CaCl2 2.5; NaHCO3 25.0; CaEDTA 0.016 and glucose 11.1mM). Blood within the aortae, adipose and connective tissues surrounding the blood vessel were removed and then the clean aortae were cut down to prepare the aortic rings having 2-3mm length. The aortic rings were suspended vertically in an organ chamber filled with 25ml of control solution (pH 7.4). In some aortic rings, the endothelium was removed mechanically by rolling the rings 7 to 8 times on a tissue towel with pincette. The bottom of aortic ring was fixed to the organ chamber and the top thereof was connected to a transducer coupler through stirrups for recording of isometric tension.
To the aortic rings showing a stable contraction induced by addition of 10^-6M phenylephrine to the organ chamber was added ginsenoside Rg3 or Rg5-dimethylsulfoxide solution alone or together with 10^-6M methylene blue(MB) or 10^-6M nitro-L-arginine(NLA) in order to observe the vasodilation thereof. The degree of contraction by 10^-6M phenylephrine was set to 100% and the degree of relaxation caused by ginsenoside Rg3 or Rg5 was represented as percent(%) with respect thereto.
Vasodilation of the processed panaxadiol saponin fraction obtained in Example 7 as mentioned above was determined according to the same experimental procedure as Test Example 1.

[1] = system: Human umbilical vein endothelium cells(HUVEC); test: Cytotoxicity to HUVEC cells (MTT, 48 hours); assay type: cell-based; settings: for cytotoxicity: compared with solvent alone (Rg3: dimethylsulfoxide; Rg5: distilled water)
Description: Human umbilical vein endothelium cells(HUVEC) cultured in M199 medium were suspended in physiological saline to a concentration of 20000 cells/180µl. The cell suspension was introduced into each well of 96-well plate in an amount of 180µl, and then 20µl of dimethylsulfoxide as a solvent or the same volume of Rg3 dissolved in dimethylsulfoxide was added thereto. The plate was incubated for 48 hours in a cell-incubator of 37°C while keeping 5% CO2. Then, 50µl of MTT(3-(4,5-dimethyl-thiazol-2'-yl)-2,5-diphenyltetrazolium bromide) dissolved in phosphate buffered solution in a concentration of 2mg/ml was added thereto and incubated again for 4 hours under the same condition as mentioned above. Thereafter, the supernatant was removed and 200µl of dimethylsulfoxide was added to measure the absorbance at 540nm. The absorbance measured was converted into cell number to determine IC50 of dimethylsulfoxide solvent and Rg3 which is the concentration to inhibit the cell growth by 50% and can be used as an index of cytotoxicity.
Human umbilical vein endothelium cells(HUVEC) cultured in M199 medium were suspended in physiological saline to a concentration of 20000 cells/180µl. The cell suspension was introduced into each well of 96-well plate in an amount of 180µl, and then 20µl of distilled water as a solvent or the same volume of Rg5 dissolved in distilled water was added thereto. The plate was incubated for 48 hours in a cell-incubator of 37°C while keeping 5% CO2. Then, 50µl of MTT(3-(4,5-dimethyl-thiazol-2'-yl)-2,5-diphenyltetrazolium bromide) dissolved in phosphate buffered solution in a concentration of 2mg/ml was added thereto and incubated again for 4 hours under the same condition as mentioned above. Thereafter, the supernatant was removed and 200µl of dimethylsulfoxide was added to measure the absorbance at 540nm.

| Molecule | effect to the blood vessel without endothelium (aortic rings) | relaxation to the blood vessel with endothelium (aortic rings) | vasodilation in the presence of methylene blue(MB) (aortic rings) | vasodilation in the presence of nitro-L-arginine(NLA) (aortic rings) | cytotoxicity [1] | IC50 (concentration to inhibit the cell growth by 50%) ([1]; dissolved in dimethylsulfoxide) |
| --- | --- | --- | --- | --- | --- | --- |
| ginsenoside Rg3 | no effect | concentration-dependent relaxation | significantly inhibited | significantly inhibited | lower cytotoxicity than the solvent | 26.7 µg/mL |
| CC(C)=CC/C=C(\C)[C@H]1CC[C@]2(C)[C@@H]1[C@H](O)C[C@@H]1[C@@]3(C)CC[C@H](O[C@@H]4O[C@H](CO)[C@@H](O)[C@H](O)[C@H]4O[C@@H]4O[C@H](CO)[C@@H](O)[C@H](O)[C@H]4O)C(C)(C)[C@@H]3CC[C@]12C [ginsenoside Rg5] | no effect | concentration-dependent relaxation | significantly inhibited | significantly inhibited | no cytotoxicity | – |
